Laboratory results published in publication PMC10600165 (Nature Communications, 2023).

Molecular target: HK68 (human A/H3N2 HA) (Influenza A virus (A/Hong Kong/1/1968(H3N2)), UniProt Q91MA7)
Type: binding

Sequence of HK68 (human A/H3N2 HA) (Influenza A virus (A/Hong Kong/1/1968(H3N2)), UniProt Q91MA7) (Q91MA7 17-530 limits assumed): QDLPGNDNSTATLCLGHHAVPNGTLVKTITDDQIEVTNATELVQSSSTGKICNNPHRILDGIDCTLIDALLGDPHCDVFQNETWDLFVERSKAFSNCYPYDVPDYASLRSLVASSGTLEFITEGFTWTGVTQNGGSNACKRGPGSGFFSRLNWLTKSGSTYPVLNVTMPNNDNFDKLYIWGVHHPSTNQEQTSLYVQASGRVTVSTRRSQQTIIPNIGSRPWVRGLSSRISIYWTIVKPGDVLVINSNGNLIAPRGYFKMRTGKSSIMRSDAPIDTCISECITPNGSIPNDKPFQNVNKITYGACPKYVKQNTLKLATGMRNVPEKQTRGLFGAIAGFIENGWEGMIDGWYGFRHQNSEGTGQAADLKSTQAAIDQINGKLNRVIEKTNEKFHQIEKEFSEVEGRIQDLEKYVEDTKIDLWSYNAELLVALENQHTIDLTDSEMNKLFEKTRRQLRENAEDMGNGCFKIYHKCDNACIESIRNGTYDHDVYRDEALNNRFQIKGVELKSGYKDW

CC(=O)N[C@H]1[C@H](OCCCCCNC(=O)CCCC[C@@H]2SC[C@@H]3NC(=O)N[C@@H]32)O[C@H](CO)[C@@H](O[C@@H]2O[C@H](CO[C@]3(C(=O)O)C[C@H](OC(C)=O)[C@@H](NC(C)=O)[C@H]([C@H](O)[C@H](O)CO)O3)[C@H](O)[C@H](O)[C@H]2O)[C@@H]1O [compound 6]
glycan microarray, fluorescence: specific for 4-O-acetylated Neu5Ac and does not depend on linkage type
